These results are taken from US7901498B2, “Trisazo compound, ink composition, printing method and colored product” (Nippon Kayaku Kabushiki Kaisha, priority 2007, dated 2011).

Series [1] in a line: Ozone gas fastness test of inkjet-printed images (coloring matter residual rate). The class given is physicochemical. To be noted: 24 hours, ozone 10 ppm; for Ozone gas fastness: 60% RH, 24° C. As to the method:
(§1) The components described below were mixed to obtain a black ink composition of the present invention, and then foreign substances were filtered off using a 0.45 μm membrane filter. Hereinafter, the obtained ink composition was referred to as “ink”.
(§2) In addition, ion-exchanged water was used as water. In ink preparation, the pH of ink was adjusted to pH 7 to 9 with sodium hydroxide and after that, ion-exchanged water was added to make the total amount 100 parts.
(§3) Using each ink obtained in the above manner, inkjet printing was performed on three kinds of information recording sheet (inkjet special paper), glossy paper 1 [trade name: Professional Photopaper PR-101, manufactured by Canon Inc.], glossy paper 2 [trade name: Photo Paper CRISPIA (highly glossy), manufactured by Seiko-Epson Corporation], glossy paper 3 [trade name: Advanced Photo Paper (glossy), manufactured by Hewlett-Packard Development Company] by an inkjet printer (trade name: PIXUS® iP4100) manufactured by Canon Inc.
(§4) In printing, an image pattern was made so that several gradations in reflection density were obtained, and black printed matter was obtained.
(§5) Using a colorimeter (trade name: SpectroEye®) manufactured by GRETAG-MACBETH, change in printed image density was measured by measuring, after the test, the gradation part where the reflection density, D value, was nearest to 1.0 on each printed image before the test.
Using an ozone weatherometer manufactured by Suga Test Instruments Co., Ltd., each printed image was left for 24 hours under the conditions of an ozone concentration of 10 ppm, a humidity of 60% RH and a temperature of 24° C. After completion of the test, each printed image was measured by the above colorimeter and the coloring matter residual rate was calculated from the formula (reflection density after test/reflection density before test)×100 (%). The test results are evaluated according to the following criteria. • ◯: Residual rate is 70% or more. • Δ: Residual rate is 60% or more and less than 70%. • ×: Residual rate is less than 60%. 2) Light Fastness Test

Series [2] in a line: Light fastness test of inkjet-printed images, xenon weatherometer (coloring matter residual rate). The class given is physicochemical. To be noted: for Light fastness: 96 hours, illuminance 100,000 lux, 60% RH, 24° C.; for coloring matter residual rate, light fastness test: 96 hours xenon. As to the method:
as §1, §2, §3, §4, §5
Using a low temperature xenon weatherometer (trade name: XL75) manufactured by Suga Test Instruments Co., Ltd., each printed image described above was irradiated for 96 hours under the conditions of a luxilluminance of 100,000, a humidity of 60% RH and a temperature of 24° C. and then measured using the above colorimeter, and the coloring matter residual rate of each image was calculated from the formula (reflection density after test/reflection density before test)×100 (%). The test results are evaluated according to the following criteria. • ◯: Residual rate is 85% or more. • Δ: Residual rate is 80% or more and less than 85%. • ×: Residual rate is less than 80%.

Where [3] appears, read: Glossy paper 1 (Professional Photopaper PR-101, Canon).
The mark [4] stands for this setting: Glossy paper 2 (Photo Paper CRISPIA, Seiko-Epson).
Setting [5] is: Glossy paper 3 (Advanced Photo Paper, Hewlett-Packard).

Take `CS(=O)(=O)O.Cc1cc(N=Nc2c(S(=O)(=O)O)cc3c(S(=O)(=O)O)c(N=Nc4c(C)c(C#N)c5nc6ccccc6n5c4O)ccc3c2O)c(OCCCS(=O)(=O)O)cc1N=Nc1nnc(SCCS(=O)(=O)O)s1` [Example 10]: the Ozone gas fastness entry in series [1] (setting [3]), in series [1] (setting [4]) and in series [1] (setting [5]) was “◯ (Residual rate is 70% or more.)” throughout. Besides, the Light fastness result in series [2] (setting [3]) is “◯ (Residual rate is 85% or more.)”; in series [2] (setting [4]), “Δ (Residual rate is 80% or more and less than 85%.)”; in series [2] (setting [5]) it was “◯ (Residual rate is 85% or more.)”.
Consider `CS(=O)(=O)O.Cc1cc(N=Nc2c(S(=O)(=O)O)cc3c(S(=O)(=O)O)c(N=Nc4c(C)c(C#N)c5nc6ccccc6n5c4O)ccc3c2O)c(OCCCS(=O)(=O)O)cc1N=Nc1nc2c(S(=O)(=O)O)cc(S(C)(=O)=O)cc2s1` [Example 14], for which the Ozone gas fastness entry in series [1] (setting [3]), in series [1] (setting [4]) and in series [1] (setting [5]) was “◯ (Residual rate is 70% or more.)” each time. The Light fastness result in series [2] (setting [3]), in series [2] (setting [4]) and in series [2] (setting [5]) was “◯ (Residual rate is 85% or more.)” each time.
Regarding `CS(=O)(=O)O.Cc1cc(N=Nc2c(S(=O)(=O)O)cc3c(S(=O)(=O)O)c(N=Nc4c(C)c(C#N)c5nc6ccccc6n5c4O)ccc3c2O)c(OCCCS(=O)(=O)O)cc1N=Nc1nc2c(S(=O)(=O)O)cc(S(=O)(=O)O)cc2s1` [Example 13], the Ozone gas fastness entry in series [1] (setting [3]), in series [1] (setting [4]) and in series [1] (setting [5]) was “◯ (Residual rate is 70% or more.)” each time. Also, the Light fastness result in series [2] (setting [3]) was “Δ (Residual rate is 80% or more and less than 85%.)”; in series [2] (setting [4]), “◯ (Residual rate is 85% or more.)”; in series [2] (setting [5]) it was “◯ (Residual rate is 85% or more.)”.
With `O=C(O)c1cc(S(=O)(=O)O)ccc1N=Nc1cc(OCCO)c(N=Nc2c(S(=O)(=O)O)cc3c(S(=O)(=O)O)c(N=Nc4c(C(=O)O)nn(-c5ccc(S(=O)(=O)O)cc5)c4O)ccc3c2O)cc1OCCO` [Comparative Example 1, reference compound], the “coloring matter residual rate, ozone gas fastness test” value in series [1] (on any glossy paper (1, 2, 3)) is “less than 60%”. Besides, the Light fastness result in series [2] (setting [5]) is “Δ (Residual rate is 80% or more and less than 85%.)”. Further, the “coloring matter residual rate, light fastness test” value in series [2] (glossy paper 1) and in series [2] (glossy paper 2) was “less than 80%” each time.
